Patent publication US7282522B2, “Hydroxamic acid derivatives and the method for preparing thereof” (Amorepacific Corporation, priority 2003, dated 2007)

Columns and labels:
RARα = target: T1, RARα (Homo sapiens, UniProt P10276); experiment: RARE-luciferase reporter assay in transfected CV-1 cells (affinity to retinoic acid receptor), RARα; assay type: cell-based; conditions: treated 24 hours at final concentration 10^−4M, control group 1000
T1 construct: expressed in transfected cells; host or cells: CV-1 cells (ATCC)
T1 sequence (P10276 1-462): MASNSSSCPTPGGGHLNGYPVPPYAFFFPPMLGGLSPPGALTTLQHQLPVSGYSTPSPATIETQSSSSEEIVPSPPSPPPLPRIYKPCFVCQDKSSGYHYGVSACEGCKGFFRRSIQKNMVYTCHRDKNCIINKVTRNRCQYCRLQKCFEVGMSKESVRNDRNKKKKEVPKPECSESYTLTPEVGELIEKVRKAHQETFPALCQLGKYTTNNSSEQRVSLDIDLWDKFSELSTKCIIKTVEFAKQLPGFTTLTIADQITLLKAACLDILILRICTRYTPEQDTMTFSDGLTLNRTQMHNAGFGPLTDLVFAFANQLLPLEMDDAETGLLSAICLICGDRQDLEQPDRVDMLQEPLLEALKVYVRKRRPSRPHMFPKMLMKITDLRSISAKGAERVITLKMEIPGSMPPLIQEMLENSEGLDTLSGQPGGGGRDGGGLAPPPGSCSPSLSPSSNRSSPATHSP
Excerpt: This example illustrates affinities of hydroxamic acid derivatives obtained in Examples 1 to 55 to retinoic acid receptor, in comparison with retinol and retinoic acid.
(§1) Receptor-expression plasmid, pECE-RARα and pECE-RARγ were engineered by the prior method (Mol. Cell. Biol. 1996, 16, 1138-1149). RARE-tk-Luc, i.e. RARE reporter was obtained by inserting RARE fragment from b-RARE-tk-CAT into pGL3 luciferase basic vector. CV-1 cells were obtained from ATCC (American Type Culture Collection).
CV-1 cells were seeded into 96-well microtiter plate at 5,000 cells per well and cultured in DMEM (Dulbecco's Modified Eagle's Media) supplemented with 2.5% fetal bovine serum. 24 Hours later, the cells were transfected with 10 ng of pECE-RARα, long of pECE-RARγ, 100 ng of reporter plasmid and 100 ng of β-galactosidase-expression vector, using LipofectaminPlus (GIBCO BRL, grand island, N.Y.). 24 Hours post-transfection, the cells were treated for 24 hours with hydroxamic acid derivatives of Examples 1˜55 or retinol at a final concentration of 10^−4M or with retinoic acid at a final concentration of 10^−5M, which is 10 times lower concentration than those of the former.

RARγ = target: T2, RARγ (Homo sapiens, UniProt P13631); experiment: RARE-luciferase reporter assay in transfected CV-1 cells (affinity to retinoic acid receptor), RARγ; assay type: cell-based; conditions: treated 24 hours at final concentration 10^−4M, control group 5000
T2 construct: expressed in transfected cells; host or cells: CV-1 cells (ATCC)
T2 sequence (P13631 1-454): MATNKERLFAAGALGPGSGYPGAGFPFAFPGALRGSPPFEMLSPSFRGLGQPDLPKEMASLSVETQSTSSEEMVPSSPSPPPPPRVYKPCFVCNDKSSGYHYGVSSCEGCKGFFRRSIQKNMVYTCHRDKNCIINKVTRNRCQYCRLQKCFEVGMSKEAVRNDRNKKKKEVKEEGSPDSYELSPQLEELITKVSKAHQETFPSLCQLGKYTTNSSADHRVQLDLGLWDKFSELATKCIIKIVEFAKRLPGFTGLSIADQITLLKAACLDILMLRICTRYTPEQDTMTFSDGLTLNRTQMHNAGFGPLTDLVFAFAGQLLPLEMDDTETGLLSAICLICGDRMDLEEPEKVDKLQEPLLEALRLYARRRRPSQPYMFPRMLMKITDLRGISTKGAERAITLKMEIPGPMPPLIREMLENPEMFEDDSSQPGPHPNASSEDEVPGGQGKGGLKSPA
Procedure: as §1
CV-1 cells were seeded into 96-well microtiter plate at 5,000 cells per well and cultured in DMEM (Dulbecco's Modified Eagle's Media) supplemented with 2.5% fetal bovine serum. 24 Hours later, the cells were transfected with 10 ng of pECE-RARα, long of pECE-RARγ, 100 ng of reporter plasmid and 100 ng of β-galactosidase-expression vector, using LipofectaminPlus (GIBCO BRL, grand island, N.Y.).

procollagen type I = experiment: Effect on collagen biosynthesis (procollagen type I ELISA) in human fibroblasts; assay type: cell-based; conditions: 10^−4M, 24 hours, serum-free medium, relative to control group = 100
Procedure: Human fibroblasts were seeded into 24-well plate at 1×10^5 cells per well and then cultured to 90% of growth.
For each supernatant, procollagen production was measured with procollagen type I ELISA kit.

collagenase = experiment: Inhibition of collagenase expression in human fibroblasts (ELISA kit); assay type: cell-based; conditions: 10^−4M, 24 hours, serum-free medium, relative to control group = 100
Procedure: Human fibroblasts were seeded into 96-well microtiter plate at 5,000 cells per well and then cultured to 90% of growth in DMEM (Dulbecco's Modified Eagle's Media) supplemented with 2.5% fetal bovine serum. Then, the fibroblastes were cultured in serum-free DMEM for 24 hours and treated for 24 hours with 10^−4M of hydroxamic acid derivatives of Examples 1˜55, retinol or retinoic acid in serum-free medium, and then the culture fluid was collected.
(§2) For each culture fluid, collagenase production was measured with collagenase kit (commercialized by AmershamPharmacia Biotech). Firstly, the culture fluid was added to 96-well plate spread with primary collagenase antibody and then antigen-antibody reaction was performed in an incubator for 3 hours. Later, chromophore-conjugated secondary antibody was added to the 96-well plate and then reacted for 15 minutes. Then, color former was added thereto, to induce development at room temperature for 15 minutes. 1M of sulfuric acid was added to stop the reaction. […] The color density depends on the progress of the reaction. The absorbance of the yellow 96-well plate was measured at 405 nm using absorptiometer. Collagenase expression was calculated by the following equation 1. Herein, the absorbance of the culture fluid collected from the medium with no material treated was used as a control. Collagenase expression (%)=(Absorbance of test group with said material treated/Absorbance of control group with no material treated)×100 [Equation 1]
Collagenase expression was evaluated as a relative value, in consideration that the value of control group with no material treated is 100.

elastase = experiment: Inhibition of elastase expression in human fibroblasts (ELISA kit); assay type: cell-based; conditions: 10^−4M, 24 hours, serum-free medium, relative to control group = 100
Procedure: as §2, with “elastase” for “collagenase”, “Elastase” for “Collagenase”, “2.” for “1.”, “2]” for “1]”
Elastase expression was evaluated as a relative value, in consideration that the value of control group with no material treated is 100.

white guinea pigs = experiment: Phototoxicity test (UVA irradiation); conditions: for Evaluation (phototoxicity): 1%(w/v) solution, UVA 15 J/cm^2; for Phototoxic index: 50 μl of 1%(w/v) solution, UVA 320~380 nm 15 J/cm^2, observed 24, 48 and 72 hours
rabbits = experiment: Primary skin irritation test on animals (Draize P.I.I.); conditions: depilated back; for P.I.I. (Primary Irritation Index): 0.5 ml of 1% solution in 1,3-butylene glycol:ethanol 7:3, observed 24 or 72 hours later; for Evaluation (skin irritation): 1% solution, according to Draize's P.I.I.

| SMILES | Luciferase activity RARα (RARα) | Luciferase activity RARγ (RARγ) | Collagen biosynthesis (%) (procollagen type I) | Collagenase expression (%) (collagenase) | Elastase expression (%) (elastase) | Evaluation (phototoxicity) (white guinea pigs) | Phototoxic index (white guinea pigs) | P.I.I. (Primary Irritation Index) (rabbits) | Evaluation (skin irritation) (rabbits) |
| --- | --- | --- | --- | --- | --- | --- | --- | --- | --- |
| CC(C)(C)c1ccc(C(=O)Nc2ccc(C(=O)NO)cc2)cc1 [Example 8, N-[4-(N-hydroxycarbamoyl)phenyl][4-tert-butylphenyl]carboxyamide] | 10002 | 12000 | 112 | 90 | 69 | No phototoxicity (lower value than 0.5, criterion value to be estimated as no phototoxicity) | 0 | 0.330 | No irritation |
| Cc1ccc(C(=O)Nc2ccc(C(=O)NO)cc2)cc1C [Example 9, N-[4-(N-hydroxycarbamoyl)phenyl][3,4-dimethylphenyl]carboxyamide] | 12000 | 12000 | 120 | 65 | 67 | No phototoxicity (lower value than 0.5, criterion value to be estimated as no phototoxicity) | 0 | 0.470 | No irritation |
| CN(O)C(=O)c1ccc(NC(=O)C23CC4CC(CC(C4)C2)C3)cc1 [Example 11, adamantyl-N-[4-(N-hydroxy-N-methylcarbamoyl)phenyl]carboxyamide] | 11600 | 10000 | 110 | 81 | 65 | No phototoxicity (lower value than 0.5, criterion value to be estimated as no phototoxicity) | 0 | 0.375 | No irritation |
| CN(C(=O)c1ccccc1)c1ccc(C(=O)NO)cc1 [Example 12, N-[4-(N-hydroxycarbamoyl)phenyl]-N-methyl-benzamide] | 14500 | 11300 | 122 | 64 | 80 | No phototoxicity (lower value than 0.5, criterion value to be estimated as no phototoxicity) | 0 | 0.410 | No irritation |
| Cc1ccc(C(=O)N(C)c2ccc(C(=O)NO)cc2)cc1 [Example 13, N-[4-(N-hydroxycarbamoyl)phenyl]-N-methyl-[4-methylphenyl]carboxyamide] | 12000 | 11200 | 117 | 70 | 84 | No phototoxicity (lower value than 0.5, criterion value to be estimated as no phototoxicity) | 0 | 0.500 | No irritation |
| Cc1cccc(C(=O)N(C)c2ccc(C(=O)NO)cc2)c1 [Example 14, N-[4-(N-hydroxycarbamoyl)phenyl]-N-methyl-[3-methylphenyl]carboxyamide] | 18000 | 10300 | 115 | 72 | 75 | No phototoxicity (lower value than 0.5, criterion value to be estimated as no phototoxicity) | 0 | 0.231 | No irritation |
| CCc1ccc(C(=O)N(C)c2ccc(C(=O)NO)cc2)cc1 [Example 15, N-[4-(N-hydroxycarbamoyl)phenyl]-N-methyl-[4-ethylphenyl]carboxyamide] | 14500 | 10400 | 112 | 79 | 76 | No phototoxicity (lower value than 0.5, criterion value to be estimated as no phototoxicity) | 0 | 0.789 | No irritation |
| CCCc1ccc(C(=O)N(C)c2ccc(C(=O)NO)cc2)cc1 [Example 16] | 12300 | 11200 | 120 | 80 | 77 | No phototoxicity (lower value than 0.5, criterion value to be estimated as no phototoxicity) | 0 | 0.567 | No irritation |
| CC(C)c1ccc(C(=O)N(C)c2ccc(C(=O)NO)cc2)cc1 [Example 17] | 12400 | 11700 | 111 | 81 | 82 | No phototoxicity (lower value than 0.5, criterion value to be estimated as no phototoxicity) | 0 | 0.123 | No irritation |
